# According to ChEMBL document CHEMBL5465560, “Selectivity Literature for EUbOPEN Chemogenomic Library” (2024):
# Assays:
# [1] = molecular target: LIM domain kinase 1 (Homo sapiens) (UniProt P53667); test: Selectivity interaction (KinomeScan (DiscoverX)) EUB0001049a LIMK1; conditions: at 1 µM
# [2] = molecular target: Serine/threonine-protein kinase PAK 6 (Homo sapiens) (UniProt Q9NQU5); test: Selectivity interaction (KinomeScan (DiscoverX)) EUB0001049a PAK6; conditions: at 1 µM
# [3] = molecular target: T1, Serine/threonine-protein kinase Nek9 (Homo sapiens) (UniProt Q8TD19); test: Selectivity interaction (KinomeScan (DiscoverX)) EUB0000666a NEK9; conditions: at 10 µM
# T1 sequence (whole entry): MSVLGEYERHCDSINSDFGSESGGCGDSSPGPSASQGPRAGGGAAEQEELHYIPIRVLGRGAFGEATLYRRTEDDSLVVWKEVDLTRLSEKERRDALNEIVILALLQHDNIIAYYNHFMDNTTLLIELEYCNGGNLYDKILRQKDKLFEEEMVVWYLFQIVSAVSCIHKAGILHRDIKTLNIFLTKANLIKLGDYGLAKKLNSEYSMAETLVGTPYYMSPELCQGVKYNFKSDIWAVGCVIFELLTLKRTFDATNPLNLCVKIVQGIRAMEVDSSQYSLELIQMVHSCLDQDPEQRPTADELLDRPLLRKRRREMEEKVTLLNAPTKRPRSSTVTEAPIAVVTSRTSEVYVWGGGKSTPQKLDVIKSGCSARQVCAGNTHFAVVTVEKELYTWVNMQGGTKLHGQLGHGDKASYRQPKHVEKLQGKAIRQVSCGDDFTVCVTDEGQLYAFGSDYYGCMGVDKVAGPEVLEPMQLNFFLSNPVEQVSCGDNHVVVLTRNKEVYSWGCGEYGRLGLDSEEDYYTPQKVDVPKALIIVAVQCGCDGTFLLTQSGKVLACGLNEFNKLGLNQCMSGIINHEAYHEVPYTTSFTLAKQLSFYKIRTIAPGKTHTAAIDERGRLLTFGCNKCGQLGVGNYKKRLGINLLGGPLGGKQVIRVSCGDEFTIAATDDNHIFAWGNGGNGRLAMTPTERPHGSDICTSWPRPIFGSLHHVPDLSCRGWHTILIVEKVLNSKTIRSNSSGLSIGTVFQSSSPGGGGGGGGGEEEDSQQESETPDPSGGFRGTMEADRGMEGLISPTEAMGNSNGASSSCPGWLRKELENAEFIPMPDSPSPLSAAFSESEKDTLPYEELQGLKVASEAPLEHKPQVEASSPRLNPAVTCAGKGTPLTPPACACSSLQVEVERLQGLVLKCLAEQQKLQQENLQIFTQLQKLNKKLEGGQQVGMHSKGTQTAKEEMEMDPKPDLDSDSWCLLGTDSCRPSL
# [4] = molecular target: Serine/threonine-protein kinase 16 (Homo sapiens, UniProt O75716); test: Selectivity interaction (KinomeScan (DiscoverX)) EUB0000229b STK16; conditions: at 10 µM
# [5] = molecular target: Serine/threonine-protein kinase 38-like (Homo sapiens) (UniProt Q9Y2H1); test: Selectivity interaction (Kinase panel (KiNativ target engagement assay in Jurkat cells)) EUB0001635a STK38L; format: cell-based; conditions: Selectivity number of off-targets 0.0, Selectivity number of targets 233.0, Source Knowledge https://www.sciencedirect.com/science/article/pii/S2451945619300674?via%3Dihub, at 1 µM
# [6] = molecular target: Tyrosine-protein kinase Blk (Homo sapiens) (UniProt P51451); test: Selectivity interaction (KinomeScan (DiscoverX)) EUB0000092b BLK; conditions: at 10 µM
# [7] = molecular target: Ephrin type-A receptor 7 (Homo sapiens) (UniProt Q15375); test: Selectivity interaction (KinomeScan (DiscoverX)) EUB0000045b EPHA7
# [8] = molecular target: T2, Tyrosine-protein kinase JAK3 (Homo sapiens) (UniProt P52333); test: Selectivity interaction (KinomeScan (DiscoverX)) EUB0000695a JAK3; conditions: at 100 nM
# T2 sequence (whole entry): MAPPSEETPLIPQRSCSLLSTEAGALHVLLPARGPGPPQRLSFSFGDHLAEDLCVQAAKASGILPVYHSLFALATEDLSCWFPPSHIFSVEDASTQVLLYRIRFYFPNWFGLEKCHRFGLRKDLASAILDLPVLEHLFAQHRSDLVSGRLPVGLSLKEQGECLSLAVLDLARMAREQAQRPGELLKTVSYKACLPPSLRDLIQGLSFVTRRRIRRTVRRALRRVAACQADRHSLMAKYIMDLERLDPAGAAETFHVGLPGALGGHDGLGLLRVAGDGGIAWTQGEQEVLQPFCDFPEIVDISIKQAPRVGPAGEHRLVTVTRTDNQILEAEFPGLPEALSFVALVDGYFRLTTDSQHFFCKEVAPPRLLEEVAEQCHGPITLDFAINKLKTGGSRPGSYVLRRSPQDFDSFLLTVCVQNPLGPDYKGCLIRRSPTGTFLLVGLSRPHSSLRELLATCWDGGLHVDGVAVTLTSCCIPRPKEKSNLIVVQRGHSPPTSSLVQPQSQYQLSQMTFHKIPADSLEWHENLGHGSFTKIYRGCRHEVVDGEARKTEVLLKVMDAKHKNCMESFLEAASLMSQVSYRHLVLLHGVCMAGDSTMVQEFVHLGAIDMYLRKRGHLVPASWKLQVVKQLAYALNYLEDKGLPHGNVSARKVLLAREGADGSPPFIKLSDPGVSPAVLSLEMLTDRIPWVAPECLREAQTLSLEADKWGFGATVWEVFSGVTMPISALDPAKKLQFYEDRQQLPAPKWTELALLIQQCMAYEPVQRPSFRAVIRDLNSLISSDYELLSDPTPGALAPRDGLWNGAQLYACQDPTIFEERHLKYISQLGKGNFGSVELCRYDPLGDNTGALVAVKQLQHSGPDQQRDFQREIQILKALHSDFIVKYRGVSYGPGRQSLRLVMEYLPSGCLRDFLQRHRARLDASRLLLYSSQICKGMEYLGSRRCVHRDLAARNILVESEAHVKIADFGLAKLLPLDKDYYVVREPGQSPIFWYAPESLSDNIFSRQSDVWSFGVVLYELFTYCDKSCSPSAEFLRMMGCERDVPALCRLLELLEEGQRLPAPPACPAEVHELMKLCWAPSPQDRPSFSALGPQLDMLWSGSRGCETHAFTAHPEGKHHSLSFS
# [9] = molecular target: Serine/threonine-protein kinase pim-3 (Homo sapiens) (UniProt Q86V86); test: Selectivity interaction (KinomeScan (DiscoverX)) EUB0000695a PIM3; conditions: at 100 nM
# Ephrin type-A receptor 7 (Homo sapiens), sequence (Q15375 28-998 limits assumed): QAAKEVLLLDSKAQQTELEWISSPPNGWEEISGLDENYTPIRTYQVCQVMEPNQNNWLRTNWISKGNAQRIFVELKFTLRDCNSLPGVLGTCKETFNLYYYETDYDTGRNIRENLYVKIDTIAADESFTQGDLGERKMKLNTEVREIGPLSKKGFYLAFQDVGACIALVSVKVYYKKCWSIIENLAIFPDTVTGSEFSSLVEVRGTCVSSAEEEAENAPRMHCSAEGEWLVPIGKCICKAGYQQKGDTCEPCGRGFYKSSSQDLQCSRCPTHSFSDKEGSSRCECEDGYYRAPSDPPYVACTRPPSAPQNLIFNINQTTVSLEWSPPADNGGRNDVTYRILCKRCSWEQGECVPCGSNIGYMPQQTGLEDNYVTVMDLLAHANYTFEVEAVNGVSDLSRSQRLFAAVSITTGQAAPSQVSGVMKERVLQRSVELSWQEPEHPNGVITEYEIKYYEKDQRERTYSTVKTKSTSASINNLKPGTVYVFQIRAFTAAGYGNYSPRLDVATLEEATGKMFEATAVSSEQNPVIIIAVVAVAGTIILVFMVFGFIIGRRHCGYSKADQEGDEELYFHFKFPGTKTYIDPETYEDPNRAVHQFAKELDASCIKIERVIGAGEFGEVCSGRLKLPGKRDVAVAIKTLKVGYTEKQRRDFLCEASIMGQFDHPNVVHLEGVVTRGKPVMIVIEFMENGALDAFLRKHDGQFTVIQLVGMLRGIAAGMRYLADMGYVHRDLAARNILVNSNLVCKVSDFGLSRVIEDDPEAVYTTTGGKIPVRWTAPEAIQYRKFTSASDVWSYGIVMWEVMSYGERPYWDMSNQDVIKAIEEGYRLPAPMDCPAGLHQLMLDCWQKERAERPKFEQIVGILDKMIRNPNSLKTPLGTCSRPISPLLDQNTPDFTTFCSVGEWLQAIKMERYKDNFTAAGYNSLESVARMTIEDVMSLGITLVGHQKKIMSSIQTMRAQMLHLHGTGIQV
# LIM domain kinase 1 (Homo sapiens), sequence (P53667 whole entry, looked up, the tested form may be a part): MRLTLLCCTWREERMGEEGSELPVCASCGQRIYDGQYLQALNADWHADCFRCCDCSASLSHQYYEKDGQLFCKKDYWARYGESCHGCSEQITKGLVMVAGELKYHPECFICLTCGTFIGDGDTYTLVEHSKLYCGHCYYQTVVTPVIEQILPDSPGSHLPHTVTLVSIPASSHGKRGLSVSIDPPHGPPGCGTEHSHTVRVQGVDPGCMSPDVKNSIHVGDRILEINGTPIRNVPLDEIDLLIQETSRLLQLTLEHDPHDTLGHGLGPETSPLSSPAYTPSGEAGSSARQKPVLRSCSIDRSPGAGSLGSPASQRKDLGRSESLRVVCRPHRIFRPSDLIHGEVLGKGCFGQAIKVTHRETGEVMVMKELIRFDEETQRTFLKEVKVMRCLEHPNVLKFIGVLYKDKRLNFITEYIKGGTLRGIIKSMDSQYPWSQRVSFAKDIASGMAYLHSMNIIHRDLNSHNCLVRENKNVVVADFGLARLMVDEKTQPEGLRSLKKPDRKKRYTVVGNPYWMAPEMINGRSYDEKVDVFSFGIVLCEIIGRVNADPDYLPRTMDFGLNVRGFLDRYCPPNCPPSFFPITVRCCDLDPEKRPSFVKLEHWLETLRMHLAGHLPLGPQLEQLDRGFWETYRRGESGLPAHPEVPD
# Serine/threonine-protein kinase 38-like (Homo sapiens), sequence (Q9Y2H1 2-464 limits assumed): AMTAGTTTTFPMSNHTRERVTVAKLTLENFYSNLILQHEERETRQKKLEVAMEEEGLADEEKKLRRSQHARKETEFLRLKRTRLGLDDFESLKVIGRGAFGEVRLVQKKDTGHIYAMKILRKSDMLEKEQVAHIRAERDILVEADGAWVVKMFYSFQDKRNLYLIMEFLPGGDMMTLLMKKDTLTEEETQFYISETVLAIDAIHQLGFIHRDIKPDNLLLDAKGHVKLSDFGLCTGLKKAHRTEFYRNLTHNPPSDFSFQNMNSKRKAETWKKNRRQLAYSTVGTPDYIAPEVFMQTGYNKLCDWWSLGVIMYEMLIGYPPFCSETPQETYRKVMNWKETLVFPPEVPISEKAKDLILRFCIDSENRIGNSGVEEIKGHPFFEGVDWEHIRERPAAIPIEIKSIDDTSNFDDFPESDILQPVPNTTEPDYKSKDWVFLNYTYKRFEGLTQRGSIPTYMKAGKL
# Serine/threonine-protein kinase 16, sequence (O75716 whole entry): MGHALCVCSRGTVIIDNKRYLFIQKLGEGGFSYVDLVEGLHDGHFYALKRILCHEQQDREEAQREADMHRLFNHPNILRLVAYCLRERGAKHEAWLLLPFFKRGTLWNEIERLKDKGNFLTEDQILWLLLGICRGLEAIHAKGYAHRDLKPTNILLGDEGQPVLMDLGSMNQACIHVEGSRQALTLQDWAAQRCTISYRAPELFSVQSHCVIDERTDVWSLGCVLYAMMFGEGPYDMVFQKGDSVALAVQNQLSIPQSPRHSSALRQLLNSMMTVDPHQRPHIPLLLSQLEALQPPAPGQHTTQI
# Serine/threonine-protein kinase PAK 6 (Homo sapiens), sequence (Q9NQU5 whole entry, looked up): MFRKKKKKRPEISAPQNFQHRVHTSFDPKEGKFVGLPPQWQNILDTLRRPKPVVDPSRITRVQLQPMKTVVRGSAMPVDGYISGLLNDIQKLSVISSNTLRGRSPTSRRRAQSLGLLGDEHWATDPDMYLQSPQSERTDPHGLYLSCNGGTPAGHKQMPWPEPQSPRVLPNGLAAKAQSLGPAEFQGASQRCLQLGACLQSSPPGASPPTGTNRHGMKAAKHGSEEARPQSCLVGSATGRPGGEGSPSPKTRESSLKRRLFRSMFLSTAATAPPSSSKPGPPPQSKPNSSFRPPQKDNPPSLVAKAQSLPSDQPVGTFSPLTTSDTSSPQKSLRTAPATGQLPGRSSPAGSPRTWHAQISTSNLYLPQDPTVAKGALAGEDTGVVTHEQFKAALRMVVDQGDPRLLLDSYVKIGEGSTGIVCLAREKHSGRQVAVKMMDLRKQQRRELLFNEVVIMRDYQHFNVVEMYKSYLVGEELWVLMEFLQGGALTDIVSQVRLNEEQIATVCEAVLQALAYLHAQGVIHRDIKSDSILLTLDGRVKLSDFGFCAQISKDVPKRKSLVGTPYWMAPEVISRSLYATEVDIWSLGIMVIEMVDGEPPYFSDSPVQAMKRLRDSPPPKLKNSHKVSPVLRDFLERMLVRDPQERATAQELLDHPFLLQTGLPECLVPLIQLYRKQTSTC
# Tyrosine-protein kinase Blk (Homo sapiens), sequence (P51451 2-505 limits assumed): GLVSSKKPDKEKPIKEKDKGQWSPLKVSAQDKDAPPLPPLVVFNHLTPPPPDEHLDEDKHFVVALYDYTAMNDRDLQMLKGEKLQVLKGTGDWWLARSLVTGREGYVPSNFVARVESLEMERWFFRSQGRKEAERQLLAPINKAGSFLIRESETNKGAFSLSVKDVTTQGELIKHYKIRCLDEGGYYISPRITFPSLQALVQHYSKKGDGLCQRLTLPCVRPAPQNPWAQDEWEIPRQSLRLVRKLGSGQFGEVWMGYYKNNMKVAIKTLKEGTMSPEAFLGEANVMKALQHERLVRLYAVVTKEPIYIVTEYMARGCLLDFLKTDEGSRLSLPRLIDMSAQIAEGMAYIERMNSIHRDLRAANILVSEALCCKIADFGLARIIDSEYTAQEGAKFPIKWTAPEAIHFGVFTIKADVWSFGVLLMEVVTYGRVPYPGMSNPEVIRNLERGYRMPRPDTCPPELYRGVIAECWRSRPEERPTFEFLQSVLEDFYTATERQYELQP
smiles,measurement,setting,value
COc1cc(Nc2nc(C)cc(-c3cnn4nc(OC)ccc34)n2)cc(C(F)(F)F)c1,% of control,[1],75%
same,% of control,[2],82%
O=C(NOC[C@H](O)CO)c1ccc(F)c(F)c1Nc1ccc(I)cc1F,% of control,[3],82%
COc1cc(N(C)c2ccnc3ccc(C(F)(F)F)cc23)cc(OC)c1OC,% binding,[4],90%
C=CC(=O)Nc1ccc(C(=O)Nc2[nH]nc3c2CN(C(=O)N[C@H](CN(C)C)c2ccccc2)C3(C)C)cc1,% of engagement,[5],-0.3%
CCC(=O)N1CCN(c2ccc(-n3c(=O)ccc4cnc5ccc(-c6cnc7ccccc7c6)cc5c43)cc2C(F)(F)F)CC1,% of control,[6],75%
C=CC(=O)Nc1cc(-n2c(=O)ccc3cnc4ccc(-c5ccc(NS(C)(=O)=O)cc5)cc4c32)ccc1C,% of control,[7]; at 1 µM,100%
same,% of control,[7]; at 10 µM,85%
Cc1cc(F)c(C(=O)Nc2cccc(-c3nncn3C(C)C)n2)cc1-n1cnc(C2CC2)c1,% of control,[8],100%
same,% of control,[9],92%
